Assay results as given in article PMC4188605, “Biochemical and Pharmacological Characterization of the Human Lymphocyte Antigen B-Associated Transcript 5 (BAT5/ABHD16A)” (PLoS ONE, 2014).
“Also recorded” adds a separate entry of the source.

What was measured:
ABHD6 = target: T1, ABHD6 (Mus musculus, UniProt Q8R2Y0); test: Competitive ABPP, mouse brain membrane proteome: ABHD6 band; conditions: at the highest concentration (10^−5 M)
T1 sequence (Q8R2Y0 1-336): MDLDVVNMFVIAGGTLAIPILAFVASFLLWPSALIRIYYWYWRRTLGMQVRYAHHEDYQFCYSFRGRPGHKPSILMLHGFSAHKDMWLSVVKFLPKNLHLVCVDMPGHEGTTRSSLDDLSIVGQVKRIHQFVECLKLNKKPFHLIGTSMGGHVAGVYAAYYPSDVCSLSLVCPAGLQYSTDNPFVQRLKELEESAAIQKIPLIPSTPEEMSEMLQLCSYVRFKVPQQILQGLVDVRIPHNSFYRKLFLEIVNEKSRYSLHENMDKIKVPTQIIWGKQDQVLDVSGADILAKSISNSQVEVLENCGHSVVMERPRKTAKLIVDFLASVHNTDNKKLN

LYPLA1/2 = test: Competitive ABPP, mouse brain membrane proteome: LYPLA1/2 band; conditions: tested concentration range 10^−8–10^−5 M
hABHD6 = target: T2, hABHD6 (Homo sapiens, UniProt Q9BV23); test: Hydrolase activity assay, hABHD6-HEK lysates; format: biochemical; conditions: hABHD6-HEK lysates; read-out: IC50
T2 construct: expressed in transfected cells; host or cells: HEK293
T2 sequence (Q9BV23 1-337): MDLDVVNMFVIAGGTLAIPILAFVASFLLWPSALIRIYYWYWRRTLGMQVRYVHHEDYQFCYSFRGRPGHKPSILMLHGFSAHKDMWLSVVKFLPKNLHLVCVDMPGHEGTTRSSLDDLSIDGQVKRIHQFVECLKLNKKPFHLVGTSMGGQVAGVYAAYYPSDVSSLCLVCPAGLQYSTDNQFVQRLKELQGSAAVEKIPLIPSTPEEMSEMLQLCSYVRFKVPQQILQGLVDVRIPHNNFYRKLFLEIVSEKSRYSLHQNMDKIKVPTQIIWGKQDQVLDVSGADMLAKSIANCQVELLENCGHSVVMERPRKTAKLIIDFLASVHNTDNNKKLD

hBAT5 = target: T3, hBAT5 (Homo sapiens, UniProt O95870); test: Inhibition of 1-LG hydrolysis in hBAT5-HEK293 lysates (fluorescent glycerol assay); format: biochemical; set-up: host or cells: HEK293; conditions: 1-LG 25 µM; 30 min inhibitor pretreatment; monitored 90 min; mean, n=3; read-out: IC50
T3 sequence (O95870 1-558): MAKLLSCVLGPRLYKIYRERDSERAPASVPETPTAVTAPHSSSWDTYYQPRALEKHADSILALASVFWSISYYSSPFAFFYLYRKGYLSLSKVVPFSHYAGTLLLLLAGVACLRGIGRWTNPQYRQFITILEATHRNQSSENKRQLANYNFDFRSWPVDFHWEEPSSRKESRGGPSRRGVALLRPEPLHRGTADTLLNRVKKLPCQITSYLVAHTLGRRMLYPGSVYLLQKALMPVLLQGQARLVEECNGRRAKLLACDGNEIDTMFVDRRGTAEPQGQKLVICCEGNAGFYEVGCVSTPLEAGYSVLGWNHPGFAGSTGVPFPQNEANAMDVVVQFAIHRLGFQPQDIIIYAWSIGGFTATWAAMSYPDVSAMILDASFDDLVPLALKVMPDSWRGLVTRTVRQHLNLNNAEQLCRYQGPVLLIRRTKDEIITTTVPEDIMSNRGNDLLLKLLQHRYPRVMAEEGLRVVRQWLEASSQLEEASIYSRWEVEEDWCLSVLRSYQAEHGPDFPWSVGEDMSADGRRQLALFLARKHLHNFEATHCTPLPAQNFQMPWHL

hMAGL = target: T4, hMAGL (Homo sapiens, UniProt Q99685); test: Hydrolase activity assay, hMAGL-HEK lysates; format: biochemical; conditions: hMAGL-HEK lysates
T4 construct: expressed in transfected cells; host or cells: HEK
T4 sequence (Q99685 1-303): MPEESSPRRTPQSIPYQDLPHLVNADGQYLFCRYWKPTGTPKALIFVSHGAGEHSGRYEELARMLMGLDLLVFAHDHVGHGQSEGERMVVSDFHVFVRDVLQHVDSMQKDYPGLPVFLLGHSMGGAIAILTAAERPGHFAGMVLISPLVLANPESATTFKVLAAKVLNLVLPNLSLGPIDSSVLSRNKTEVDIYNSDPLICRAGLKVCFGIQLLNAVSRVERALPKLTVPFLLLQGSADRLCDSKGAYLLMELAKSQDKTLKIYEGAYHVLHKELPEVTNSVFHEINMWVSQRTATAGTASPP

BAT5 = target: T5, BAT5 (Mus musculus, UniProt Q9Z1Q2); test: Competitive ABPP, mouse brain membrane proteome: BAT5 band; conditions: tested concentration range 10^−8–10^−5 M
T5 sequence (Q9Z1Q2 1-558): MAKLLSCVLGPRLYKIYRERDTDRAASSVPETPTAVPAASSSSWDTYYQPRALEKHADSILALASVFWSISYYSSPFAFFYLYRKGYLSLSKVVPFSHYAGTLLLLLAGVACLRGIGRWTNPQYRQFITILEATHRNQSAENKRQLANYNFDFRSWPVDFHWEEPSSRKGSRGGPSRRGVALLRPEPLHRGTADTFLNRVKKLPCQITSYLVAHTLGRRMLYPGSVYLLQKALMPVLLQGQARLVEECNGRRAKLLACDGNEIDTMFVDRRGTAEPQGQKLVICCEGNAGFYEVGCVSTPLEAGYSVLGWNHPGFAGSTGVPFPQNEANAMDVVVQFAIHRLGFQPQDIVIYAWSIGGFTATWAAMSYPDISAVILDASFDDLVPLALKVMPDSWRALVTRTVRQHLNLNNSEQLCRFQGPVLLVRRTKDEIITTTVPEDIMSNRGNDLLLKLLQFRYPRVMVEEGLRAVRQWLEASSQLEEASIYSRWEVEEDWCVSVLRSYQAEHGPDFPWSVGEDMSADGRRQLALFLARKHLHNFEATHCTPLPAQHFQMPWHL

ABHD12 = target: T6, ABHD12 (Mus musculus, UniProt Q99LR1); test: Competitive ABPP, mouse brain membrane proteome: ABHD12 band; conditions: tested concentration range 10^−8–10^−5 M
T6 sequence (Q99LR1 1-398): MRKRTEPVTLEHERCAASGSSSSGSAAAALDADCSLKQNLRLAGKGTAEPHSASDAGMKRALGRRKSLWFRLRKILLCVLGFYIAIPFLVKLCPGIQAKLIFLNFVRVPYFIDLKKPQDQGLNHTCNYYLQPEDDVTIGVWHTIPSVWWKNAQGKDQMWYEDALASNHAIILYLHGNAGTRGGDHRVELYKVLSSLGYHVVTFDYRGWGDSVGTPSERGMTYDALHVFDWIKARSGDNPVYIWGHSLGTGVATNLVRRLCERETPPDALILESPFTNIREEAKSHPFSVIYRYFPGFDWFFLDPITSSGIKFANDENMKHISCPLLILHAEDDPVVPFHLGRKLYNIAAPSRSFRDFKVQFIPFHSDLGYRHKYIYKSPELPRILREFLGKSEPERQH

In the case of `CCCCCCCCCC[C@@H]1C(=O)O[C@H]1CCc1ccc(OC)c(OC)c1` [Palmostatin B, palmostatin B], the “inhibition of probe binding to ABHD6” value (ABHD6) is reported as “inhibited probe binding; also recorded: also inhibited”, the “inhibition of probe binding to LYPLA1/2” value (LYPLA1/2) is reported as “dose-dependently inhibited probe binding; also recorded: dose-dependently inhibits probe labeling” and the IC50 (hABHD6) is reported as 52.5 nM. The IC50 (hBAT5) was 100 nM, the IC50 (hMAGL) was 93.3 nM and the “inhibition of probe binding to BAT5” value (BAT5) was “dose-dependently inhibited probe binding; also recorded: dose-dependently inhibits probe labeling”. For the same molecule, the “inhibition of probe binding to ABHD12” value (ABHD12) was “dose-dependently inhibited probe binding; also recorded: dose-dependently inhibits probe labeling”.
